Experimental data: patent publication US20230146395A1, “Substituted Pyrimidines and Uses Thereof” (Verge Analytics, Inc., priority 2020, published 2023)

Tests used:
[1] = target: T1, Full length human recombinant PIKFYVE (Homo sapiens, UniProt Q9Y2I7); test: Inhibition of PIKfyve (microfluidic electrophoresis kinase assay, PI3P/PS substrate); assay type: biochemical; conditions: 12 concentrations
T1 construct: Full length human recombinant PIKFYVE; purchased Carna Biosciences (Kobe, Japan); host or cells: baculovirus expression system
Method in brief: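 Percent inhibition, from 12 concentrations, was derived from the product/(substrate+product) peak ratio separated by microfluidic electrophoresis, normalized to DMSO-only and enzyme-free controls. Reactions ran 3 h at room temperature: 2 nM N-terminal GST-PIKFYVE, 1 μM fluorescent PI3P in PS vesicles, […], HEPES pH 7.5, MgCl2/MnCl2.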

[2] = system: HEK 293T transfected with plasmids containing TDP-43 Q331K mutation; test: HEK/TDP Survival assay (Cell-Titer-Glo, 48 hrs, maximal effect of rescue); assay type: cell-based; conditions: Homo sapiens, HEK 293T with TDP-43 Q331K, (n) in brackets
Method: HEK/TDP Survival assay: Immortalized human embryonic kidney 293T (HEK 293T) were transfected with plasmids containing TDP-43 Q331K mutation, resulting in an increase in cell death that is biologically relevant to ALS patients. Cell death is measured as reductions in the amount of ATP, an indicator of metabolically active cells, that is quantified by a luminescence Cell-Titer-Glo® (CTG) reagent. Compounds are evaluated in this model for changes in CTG compared to a no treatment group. Increased signal indicates improved survival (rescue) and decreased signal indicates decreased survival.
Cell rescue was measured in a 96-well format with eight different concentrations of the test compound over 48 hours (hrs) with 6 replicates. The Promega Cell-Titer-Glo® Luminescent Cell Viability Assay was used to quantify ATP, an indicator of metabolically active cells (see protocol: https://www.promega.com/-/media/files/resources/protocols/technical-manuals/101/celltiterglo-2-0-assay-protocol.pdf?la=en). The luminescence signal was detected using the PerkinElmer EnVision or Molecular Devices SpectraMax.
The effect of a compound at a given dose on cell viability was determined using a three step procedure. First, Hedge's g for the Cell Titer-Glo luminescence values using six untreated wells on every plate as a control was calculated. […] Finally, values from all compound-dose pairs were corrected for multiple hypothesis testing using the Empirical Bayes framework of Stephens, M. (False discovery rates: a new deal, Biostatistics, 18 [2], 2017, 275-294) yielding credible intervals for the measured effect and associated s values.
Briefly, this method computes a local false sign rate for each experiment. Analogous to the local false discovery rate of Efron, B. (Size, power and false discovery rates, Ann. Statist. 35 [4], 2007, 1351-1377) this value measures the confidence in the sign of each effect (rather than confidence in each effect being non-zero). The s values reported in the previous figures are the expected fraction of errors if estimating the sign of all effects with greater absolute local false sign rate, defined in analogy to the q value of Storey, JD (The positive false discovery rate: a Bayesian interpretation and the q-value, Ann. Statist. 31 [6] 2003, 2013-2035).
Drugs that yielded signed log s values greater than 3 were considered hits. This threshold was determined by a separate calibration experiment in which Cell Titer-Glo® was measured in blank plates consisting of untreated cells to assess the noise inherent in the assay. Data are presented as the maximal effect of rescue obtained from the dose-response curve.

T1 sequence (Q9Y2I7 whole entry): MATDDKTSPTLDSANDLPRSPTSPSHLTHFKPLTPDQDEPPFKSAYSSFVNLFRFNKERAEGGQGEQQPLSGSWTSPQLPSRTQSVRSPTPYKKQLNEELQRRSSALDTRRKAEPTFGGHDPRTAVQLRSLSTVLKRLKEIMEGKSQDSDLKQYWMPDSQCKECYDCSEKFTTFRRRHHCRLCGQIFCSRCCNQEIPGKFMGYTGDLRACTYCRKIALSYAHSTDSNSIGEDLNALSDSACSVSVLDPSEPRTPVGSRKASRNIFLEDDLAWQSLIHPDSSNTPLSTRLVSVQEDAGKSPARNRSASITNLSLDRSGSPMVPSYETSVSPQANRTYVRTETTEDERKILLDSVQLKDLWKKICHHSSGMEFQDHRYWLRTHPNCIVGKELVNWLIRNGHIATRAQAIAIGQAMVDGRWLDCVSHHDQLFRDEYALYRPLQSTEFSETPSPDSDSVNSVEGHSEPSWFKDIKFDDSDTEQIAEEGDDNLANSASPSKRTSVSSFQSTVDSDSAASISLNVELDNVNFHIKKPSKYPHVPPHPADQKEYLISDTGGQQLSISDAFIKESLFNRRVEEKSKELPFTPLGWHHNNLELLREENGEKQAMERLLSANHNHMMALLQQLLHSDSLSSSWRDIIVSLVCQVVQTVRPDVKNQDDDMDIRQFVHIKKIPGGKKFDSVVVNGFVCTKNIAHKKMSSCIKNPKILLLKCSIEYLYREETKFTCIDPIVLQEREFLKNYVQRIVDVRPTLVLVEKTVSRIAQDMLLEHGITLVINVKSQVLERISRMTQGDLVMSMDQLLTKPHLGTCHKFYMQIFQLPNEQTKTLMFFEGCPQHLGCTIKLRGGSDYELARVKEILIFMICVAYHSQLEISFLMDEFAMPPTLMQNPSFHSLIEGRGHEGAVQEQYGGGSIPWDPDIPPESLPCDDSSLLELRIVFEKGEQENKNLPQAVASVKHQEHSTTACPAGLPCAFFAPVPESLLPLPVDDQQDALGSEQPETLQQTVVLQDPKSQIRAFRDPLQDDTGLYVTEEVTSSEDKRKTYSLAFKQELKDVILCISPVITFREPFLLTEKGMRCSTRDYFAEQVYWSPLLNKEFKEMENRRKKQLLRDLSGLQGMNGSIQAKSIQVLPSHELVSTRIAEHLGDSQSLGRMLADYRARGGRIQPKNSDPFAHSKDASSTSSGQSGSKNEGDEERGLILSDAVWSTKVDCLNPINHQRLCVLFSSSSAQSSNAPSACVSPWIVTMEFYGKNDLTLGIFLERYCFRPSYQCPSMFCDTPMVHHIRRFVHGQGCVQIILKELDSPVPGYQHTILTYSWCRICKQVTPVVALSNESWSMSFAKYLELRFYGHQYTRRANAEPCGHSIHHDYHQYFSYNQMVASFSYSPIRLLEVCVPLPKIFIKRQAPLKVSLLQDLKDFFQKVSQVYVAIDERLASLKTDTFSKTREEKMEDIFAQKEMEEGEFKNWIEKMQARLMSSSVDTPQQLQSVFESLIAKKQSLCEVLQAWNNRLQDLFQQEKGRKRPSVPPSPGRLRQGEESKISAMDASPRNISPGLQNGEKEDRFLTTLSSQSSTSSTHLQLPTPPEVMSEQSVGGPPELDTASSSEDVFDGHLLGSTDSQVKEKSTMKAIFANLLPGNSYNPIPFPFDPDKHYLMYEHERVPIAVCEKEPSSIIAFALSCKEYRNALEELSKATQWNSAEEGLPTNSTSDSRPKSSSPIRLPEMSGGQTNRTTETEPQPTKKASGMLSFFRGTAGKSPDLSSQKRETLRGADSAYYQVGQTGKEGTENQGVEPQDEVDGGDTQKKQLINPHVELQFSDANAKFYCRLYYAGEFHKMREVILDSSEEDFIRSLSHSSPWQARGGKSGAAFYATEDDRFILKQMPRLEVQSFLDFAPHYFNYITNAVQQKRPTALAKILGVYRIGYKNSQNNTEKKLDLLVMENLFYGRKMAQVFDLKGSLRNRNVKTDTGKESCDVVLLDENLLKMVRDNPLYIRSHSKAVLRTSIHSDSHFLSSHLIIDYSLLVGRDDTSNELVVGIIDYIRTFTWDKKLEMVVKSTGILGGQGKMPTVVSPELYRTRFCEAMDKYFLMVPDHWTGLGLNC

| Structure (SMILES) | IC50 [1] | EC50 [2] |
| --- | --- | --- |
| Cc1cccc(-c2ccn(-c3nc(N4CCOCC4)c4oc(-c5cccnc5)cc4n3)n2)c1 [Compound 90] | 0.0077 µM | 20.5 nM |
| Cc1cccc(-c2ccn(-c3nc(N4CCOCC4)c4oc(C(=O)NC5COC5)cc4n3)n2)c1 [Compound 104, 4-morpholino-N-(oxetan-3-yl)-2-(3-(m-tolyl)-1H-pyrazol-1-yl)furo[3,2-d]pyrimidine-6-carboxamide] | 0.0412 µM | 98 nM |
| Cc1cccc(-c2ccn(-c3nc(N4CCOCC4)c4oc(C(=O)NCCCN(C)C)cc4n3)n2)c1 [Compound 109, N-(3-(dimethylamino)propyl)-4-morpholino-2-(3-(m-tolyl)-1H-pyrazol-1-yl)furo[3,2-d]pyrimidine-6-carboxamide] | 0.0117 µM | 46.5 nM |
| Cc1cccc(-c2cnn(-c3nc(N4CCOCC4)c4oc(C(=O)NCCCN(C)C)cc4n3)c2)c1 [Compound 111, N-(3-(dimethylamino)propyl)-4-morpholino-2-(4-(m-tolyl)-1H-pyrazol-1-yl)furo[3,2-d]pyrimidine-6-carboxamide] | 0.0031 µM | 35.5 nM |
| Cc1cccc(-c2ccn(-c3nc(N4CCOCC4)c4oc(-c5ccccn5)c(C(F)(F)F)c4n3)n2)c1 [Compound 112, 4-morpholino-6-(pyridin-2-yl)-2-(3-(m-tolyl)-1H-pyrazol-1-yl)-7-(trifluoromethyl) furo[3,2-d]pyrimidine] | > 10 µM | 153 nM |
| C[C@H](NC(=O)c1cc2nc(-n3cc(-c4ccccc4)cn3)nc(N3CCOCC3)c2o1)C1CC1 [Compound 114, (S)-N-(1-cyclopropylethyl)-4-morpholino-2-(4-phenyl-1H-pyrazol-1-yl)furo[3,2-d]pyrimidine-6-carboxamide] | 0.0096 µM | 61 nM |
| Cc1cccc(-c2cnn(-c3nc(N4CCOCC4)c4oc(C(=O)NCC5CC5)cc4n3)c2)c1 [Compound 115, N-(cyclopropylmethyl)-4-morpholino-2-(4-(m-tolyl)-1H-pyrazol-1-yl)furo[3,2-d]pyrimidine-6-carboxamide] | 0.0031 µM | 35.7 nM |
| c1ccc(-c2ccn(-c3nc(N4CCOCC4)c4oc(-c5ncco5)cc4n3)n2)cc1 [Compound 214, 4-morpholino-6-oxazol-2-yl-2-(3-phenylpyrazol-1-yl)furo[3,2-d]pyrimidine] | 0.0441 µM |  |
| [2H]C([2H])([2H])c1cccc(-c2cnn(-c3nc(N4CCOCC4)c4oc(-c5ccn(C)n5)cc4n3)c2)c1 [Compound 215, 6-(1-methylpyrazol-3-yl)-4-morpholino-2-[4-[3-(trideuteriomethyl)phenyl]pyrazol-1-yl]furo[3,2-d]pyrimidine] | 0.0002 µM |  |
| [2H]C([2H])([2H])c1cccc(-c2ccn(-c3nc(N4CCOCC4)c4oc(-c5ccn(C)n5)cc4n3)n2)c1 [Compound 216, 6-(1-methylpyrazol-3-yl)-4-morpholino-2-[3-[3-(trideuteriomethyl)phenyl]pyrazol-1-yl]furo[3,2-d]pyrimidine] | 0.0008 µM |  |
| O=C(NC1CCOCC1)c1cc2nc(-n3ccc(-c4cccc(Br)c4)n3)nc(N3CCOCC3)c2o1 [Compound 220, 2-[3-(3-bromophenyl)pyrazol-1-yl]-4-morpholino-N-tetrahydropyran-4-yl-furo[3,2-d]pyrimidine-6-carboxamide] | 0.0163 µM |  |

Continued by falling IC50 [1], values first:

| IC50 [1] | Structure (SMILES) | EC50 [2] |
| --- | --- | --- |
| 0.0473 µM | COCCNC(=O)c1cc2nc(-n3ccc(-c4cccc(C)c4)n3)nc(N3CCOCC3)c2o1 [Compound 93, N-(2-methoxyethyl)-4-morpholino-2-(3-(m-tolyl)-1H-pyrazol-1-yl)furo[3,2-d]pyrimidine-6-carboxamide] | 60 nM |
| 0.0373 µM | COCCNC(=O)c1cc2nc(-n3cc(-c4cccc(C)c4)cn3)nc(N3CCOCC3)c2o1 [Compound 117, N-(2-methoxyethyl)-4-morpholino-2-(4-(m-tolyl)-1H-pyrazol-1-yl)fur[3,2-d]pyrimidine-6-carboxamide] | 74.3 nM |
| 0.0323 µM | Cc1cccc(-c2ccn(-c3nc(N4CCOCC4)c4oc(C(=O)NCC5COC5)cc4n3)n2)c1 [Compound 105, 4-morpholino-N-(oxetan-3-ylmethyl)-2-(3-(m-tolyl)-1H-pyrazol-1-yl)furo[3,2-d]pyrimidine-6-carboxamide] | 100 nM |
| 0.0233 µM | Cc1cccc(-c2ccn(-c3nc(N4CCOCC4)c4oc(C(=O)NCCCCN(C)C)cc4n3)n2)c1 [Compound 108, N-(4-(dimethylamino)butyl)-4-morpholino-2-(3-(m-tolyl)-1H-pyrazol-1-yl)furo[3,2-d]pyrimidine-6-carboxamide] | 53 nM |
| 0.019 µM | Cc1cccc(-c2ccn(-c3nc(N4CCOCC4)c4oc(-c5ccncc5)cc4n3)n2)c1 [Compound 89, 4-morpholino-6-(pyridin-4-yl)-2-(3-(m-tolyl)-1H-pyrazol-1-yl)furo[3,2-d]pyrimidine] | 31.5 nM |
| 0.017 µM | Cc1cccc(-c2ccn(-c3nc(N4CCOCC4)c4oc(C(=O)NCC5CC5)cc4n3)n2)c1 [Compound 97, N-(cyclopropylmethy 1)-4-morpholino-2-(3-(m-tolyl)-1H-pyrazol-1-yl)furo[3,2-d]pyrimidine-6-carboxamide] | 16.5 nM |
| 0.015 µM | Cc1cccc(-c2ccn(-c3nc(N4CCOCC4)c4oc(C(=O)NC5CC5)cc4n3)n2)c1 [Compound 96, N-cyclopropyl-4-morpholino-2-(3-(m-tolyl)-1H-pyrazol-1-yl)furo[3,2-d]pyrimidine-6-carboxamide] | 17.5 nM |
| 0.0118 µM | CCNC(=O)c1cc2nc(-n3ccc(-c4cccc(C)c4)n3)nc(N3CCOCC3)c2o1 [Compound 95, N-ethyl-4-morpholino-2-(3-(m-tolyl)-1H-pyrazol-1-yl)furo[3,2-d]pyrimidine-6-carboxamide] | 94 nM |
| 0.0091 µM | Cc1cccc(-c2ccn(-c3nc(N4CCOCC4)c4oc(-c5ncco5)cc4n3)n2)c1 [Compound 218, 4-morpholino-2-[3-(m-tolyl)pyrazol-1-yl]-6-oxazol-2-yl-furo[3,2-d]pyrimidine] |  |
| 0.0082 µM | Cc1cccc(-c2cnn(-c3nc(N4CCOCC4)c4oc(C(=O)NCCCS(C)(=O)=O)cc4n3)c2)c1 [Compound 119, N-(3-(methylsulfonyl)propyl)-4-morpholino-2-(4-(m-tolyl)-1H-pyrazol-1-yl)furo[3,2-d]pyrimidine-6-carboxamide] | 96.5 nM |
| 0.008 µM | c1ccc(-c2cc(Nc3nc(N4CCOCC4)c4oc(-c5ccncc5)cc4n3)no2)cc1 [Compound 43, 4-morpholino-N-(5-phenylisoxazol-3-yl)-6-(pyridin-4-yl)furo[3,2-d]pyrimidin-2-amine] | 47.5 nM |
| 0.0034 µM | COc1cccc(-c2ccn(-c3nc(N4CCOCC4)c4oc(C(=O)NC5CCOCC5)cc4n3)n2)c1 [Compound 221, 2-[3-(3-methoxyphenyl)pyrazol-1-yl]-4-morpholino-N-tetrahydropyran-4-yl-furo[3,2-d]pyrimidine-6-carboxamide] |  |
| 0.0029 µM | Cc1cccc(-c2cnn(-c3nc(N4CCOCC4)c4oc(C(=O)NCCCCN(C)C)cc4n3)c2)c1 [Compound 110, N-(4-(dimethylamino)butyl)-4-morpholino-2-(4-(m-tolyl)-1H-pyrazol-1-yl)furo[3,2-d]pyrimidine-6-carboxamide] | 33 nM |
| 0.0022 µM | [2H]C([2H])([2H])c1cccc(-c2ccn(-c3nc(N4CCOCC4)c4oc(-c5ccccn5)cc4n3)n2)c1 [Compound 217, 4-morpholino-6-(2-pyridyl)-2-[3-[3-(trideuteriomethyl)phenyl]pyrazol-1-yl]furo[3,2-d]pyrimidine] |  |
| 0.0004 µM | Cc1cccc(-c2ccn(-c3nc(N4CCOCC4)c4oc(-c5cn[nH]c5)cc4n3)n2)c1 [Compound 219, 4-morpholino-2-[3-(m-tolyl)pyrazol-1-yl]-6-(1H-pyrazol-4-yl)furo[3,2-d]pyrimidine] |  |
| 0.0002 µM | Cc1cccc(-c2cnn(-c3nc(N4CCOCC4)c4oc(C(=O)N[C@@H](C)C5CC5)cc4n3)c2)c1 [Compound 113, (S)-N-(1-cyclopropylethyl)-4-morpholino-2-(4-(m-tolyl)-1H-pyrazol-1-yl)furo[3,2-d]pyrimidine-6-carboxamide] | 16 nM |
